Test results published in US12144795B2, “Cannabidiol compositions having modified cannabinoid profiles” (priority 2018, dated 2024).

Columns and labels:
Format in all cases: physicochemical
[1] = Stress stability tests of CBD (acidic, alkaline, oxidative, light, heat, humidity; UPLC, LC-MS, PDA-UV)
Description: Cannabidiol samples obtained by Protocol 1 were subjected to acidic, alkaline, and oxidizing conditions in order to achieve a degradation of at least 3% or a change in appearance. The impact of light, heat, and humidity on the stability of the drug substance was investigated. The assay and purity of samples were analyzed by UPLC. The identity of unknown impurities was examined by LC-MS. The peak purity of cannabidiol after exposure to stress conditions was investigated by comparing the PDA-UV spectrum (photodiode array-ultraviolet) of cannabidiol with the spectrum of the unstressed sample and in addition by LC-MS analysis of the cannabidiol peak. The assay of the unstressed sample in FIG. 15A and FIG. 15B was used as a reference to calculate the extent of degradation of CBD under the representative stress conditions: Degradation of CBD=(1−[assay of stressed sample]/[assay unstressed sample])*100% […]
In a 20 ml GC headspace vial, 150 mg of CBD was suspended in 8 mL of 0.1 M sodium hydroxide and heated to T=80° C. for 2 h, 4 h and 6 h, respectively. […]

[2] = Evaporative crystallization from solvent mixtures, form by HT-XRPD before and after AAC; settings: Acetonitrile / Water (50/50, v/v)
Description: Recrystallization experiments were conducted to screen for potential CBD polymorphs and evaluate the ability of the recrystallized CBD to expel impurities. The following recrystallization methods were undertaken: • evaporative crystallization from solvent mixtures; • antisolvent crystallization; • cooling crystallization; • single solvent drop grinding; • crystallization by crash-cooling; • vapor-diffusion-into-solution crystallization; and • crystallization by liquid diffusion. In each method, the starting material consisted of crystallized CBD of form A. Evaporative Crystallization from Solvent Mixtures
Without wishing to be bound by theory, the general principle behind evaporative crystallization using solvent anti-solvent mixtures is that the solvent evaporates, first causing the API to precipitate to some extent, and this material then acts as a seed, when the anti-solvent is evaporated. The first evaporation step is slow and is followed by a faster final evaporation phase. All crystalline samples were Form A both before and after the solids were exposed to accelerated ageing conditions. An oil-like substance was obtained from an acetonitrile/water solvent mixture that could not be analyzed by XRPD; therefore, this sample was not exposed to accelerated aging conditions.

[3] = Crash cooling crystallization, XRPD before and after AAC; settings: for Dissolved at start / Solids after T profile / Solid form by HT-XRPD Evaporation of ML Before: 50 mg/mL
Description: As a variation on the above cooling crystallization experiments, several crash cooling crystallization were performed. In order to modulate the solubility of cannabidiol, crash cooling experiments were performed in solvent mixtures. Clear solutions of 50 mg/mL of cannabidiol were prepared in solvent mixtures and rapidly cooled in an ice bath. Vials were then placed at −20° C. for 48 hours. Precipitated solids and mother liquors were treated as described above for the ordinary cooling crystallization experiments. Only from heptane/pentane cooling did there result in the precipitation of a solid. […] When no XRPD record was generated, the field is defined as “Not Applicable” (N/A) in Table 29.

Question: With `C=C(C)[C@@H]1CCC(C)=C[C@H]1c1c(O)cc(CCCCC)cc1O` [CBD, (1′R,2′R)-5′-methyl-4-pentyl-2′-(prop-1-en-2-yl)-1′,2′,3′,4′-tetrahydro-[1,1′-biphenyl]-2,6-diol] as the molecule, how does the Appearance after stress ([1]; 0.1 M hydrochloric acid, 80° C., 2 h, 4 h and 6 h) read?
Answer: suspension of yellowish melted CBD in a clear colorless aqueous solution

Question: What about the Appearance after stress ([1]; 0.1 M sodium hydroxide, 80° C., 2 h, 4 h and 6 h) of the same molecule?
Answer: suspension of yellowish melted CBD in a violet aqueous solution

Question: What about the Appearance after stress ([1]; 24 h at 75% r.h.) of the same molecule?
Answer: did not change its appearance

Question: What about the “Proposed main degradation products(s)” value ([1]; Acidic, 80° C.) of the same molecule?
Answer: D9-THC

Question: What about the “Degradation of CBD” value ([1]; Acidic, 6 h, 80° C. (0.1 M hydrochloric acid)) of the same molecule?
Answer: 4%

Question: What about the “Proposed main degradation products(s)” value ([1]; Alkaline stress) of the same molecule?
Answer: several isomers of CBQ

Question: What about the “Degradation of CBD” value ([1]; Alkaline stress, stock solution at the time of the LC-MS analysis) of the same molecule?
Answer: > 80%

Question: What about the “Proposed main degradation products(s)” value ([1]; Heat, 100° C. for 24 h) of the same molecule?
Answer: Hydroxy-CBD and Hydroxy-CBQ

Question: What about the “Degradation of CBD” value ([1]; Heat, 24 h, 100° C.) of the same molecule?
Answer: 1%

Question: And the “Proposed main degradation products(s)” value ([1]; Humidity, 24 h, 24° C.)?
Answer: No prominent degradation product

Question: And the “Degradation of CBD” value ([1]; Humidity, 24 h, 24° C. (75% r.h.))?
Answer: 0%

Question: And the “Degradation of CBD” value ([1]; Light, 24 h 24° C.)?
Answer: 1%

Question: And the “Proposed main degradation products(s)” value ([1]; Light, 24 h 24° C.)?
Answer: No prominent degradation product

Question: And the “Proposed main degradation products(s)” value ([1]; Oxidative stress (H2O2))?
Answer: Hydroxy-CBD (CBD-OH)

Question: What about the “Degradation of CBD” value ([1]; Oxidative, 6 h 80° C. (hydrogen peroxide 0.3% w/w)) of the same molecule?
Answer: 3%

Question: What about the “Degradation of CBD” value ([1]; elevated temperatures lower than 100° C.) of the same molecule?
Answer: no significant degradation

Question: And the Appearance after stress ([1]; heated to 50° C. and 60° C. for 1 hour)?
Answer: turned slightly yellow but did not change their physical condition

Question: What about the Appearance after stress ([1]; heated to 70° C. for one hour) of the same molecule?
Answer: partially melted

Question: What about the Appearance after stress ([1]; heated to 80° C. or higher) of the same molecule?
Answer: fully melted and exhibited a yellow color

Question: And the Appearance after stress ([1]; hydrogen peroxide (0.3% w/w), 80° C., 2 h, 4 h and 6 h)?
Answer: suspension of yellowish melted CBD in a clear colorless aqueous solution

Question: What about the Appearance after stress ([1]; irradiated with light 24 h, 24° C.) of the same molecule?
Answer: turned slightly yellow

Question: And the “Form by HT-XRPD Before AAC” value [2]?
Answer: Oily

Question: And the Dissolved at start ([3]; 1,4-Dioxane/Water (80/20))?
Answer: Yes

Question: And the “Solids after T profile” value ([3]; 1,4-Dioxane/Water (80/20))?
Answer: No

Question: What about the “Effect of accelerated aging conditions” value ([3]; 40° C./75% RH for two days) of the same molecule?
Answer: no effect on the physical appearance

Question: What about the Dissolved at start ([3]; Acetone/2,2,4-Trimethylpentane) of the same molecule?
Answer: Yes

Question: What about the “Solids after T profile” value ([3]; Acetone/2,2,4-Trimethylpentane) of the same molecule?
Answer: No

Question: What about the Dissolved at start ([3]; Acetone/Water (80/20)) of the same molecule?
Answer: Yes

Question: What about the “Solid form by HT-XRPD Evaporation of ML Before” value (from here on “Solid form”) ([3]; Acetone/Water (80/20)) of the same molecule?
Answer: Oily

Question: And the “Solids after T profile” value ([3]; Acetone/Water (80/20))?
Answer: No

Question: And the Dissolved at start ([3]; Acetonitrile/Water (80/20))?
Answer: Yes

Question: What about the “Solids after T profile” value ([3]; Acetonitrile/Water (80/20)) of the same molecule?
Answer: No

Question: And the Dissolved at start ([3]; Chloroform/Hexane (50/50))?
Answer: Yes

Question: What about the “Solids after T profile” value ([3]; Chloroform/Hexane (50/50)) of the same molecule?
Answer: No

Question: And the Dissolved at start ([3]; Ethanol/2,2,4-Trimethylpentane)?
Answer: Yes

Question: What about the “Solids after T profile” value ([3]; Ethanol/2,2,4-Trimethylpentane) of the same molecule?
Answer: No

Question: And the Dissolved at start ([3]; Ethyl formate/Decane)?
Answer: Yes

Question: What about the “Solid form” value ([3]; Ethyl formate/Decane) of the same molecule?
Answer: Oily

Question: And the “Solids after T profile” value ([3]; Ethyl formate/Decane)?
Answer: No

Question: And the Dissolved at start ([3]; Heptane/Pentane (50/50))?
Answer: Yes

Question: What about the “Solids after T profile” value ([3]; Heptane/Pentane (50/50)) of the same molecule?
Answer: Yes

Question: And the Dissolved at start ([3]; Isopropanol/Decane (50/50))?
Answer: Yes

Question: What about the “Solids after T profile” value ([3]; Isopropanol/Decane (50/50)) of the same molecule?
Answer: No

Question: And the Dissolved at start ([3]; Tetrahydrofuran/Water (80/20))?
Answer: Yes

Question: And the “Solid form” value ([3]; Tetrahydrofuran/Water (80/20))?
Answer: Oily

Question: And the “Solids after T profile” value ([3]; Tetrahydrofuran/Water (80/20))?
Answer: No

Question: And the “Polymorphic form of precipitated solid” value ([3]; heptane/pentane, crash cooling, −20° C. for 48 hours)?
Answer: same polymorphic form as the starting material Form A
